According to US11370796B2, “Substituted pyrazoles as LRRK2 inhibitors” (OSCOTEC INC., priority 2017, dated 2022):
Like-named read-outs stand apart in the source and are kept apart here.

Target: LRRK2 (leucine-rich repeat kinase 2) (Homo sapiens (Human), UniProt Q5S007)
Assay: Inhibitory effect on LRRK2 in vitro (LANCE kinase assay)
Assay type: biochemical
Experimental: The inhibitory effect of Compounds 1 to 62 on LRRK2 (leucine-rich repeat kinase 2) in vitro was measured. In the analysis of the results, IC50 values were calculated for a quantitative comparison of the in vitro activity.
After the compound was dissolved in 100% DMSO at 10 mM, it was serially diluted to the range of 1 μM to 10 μM using biochemical LRRK2 assay buffer (50 mM HEPES (4-(2-hydroxyethyl)-1-piperazineethanesulfonic acid) pH 7.5, 10 mM MgCl2, 1 mM EGTA (1,2-bis(o-aminophenoxy)ethane-N,N,N′,N′-tetraacetic acid), 2 mM DTT (dithiothreitol), and 0.01% TWEEN-20 (Aldrich)). Purified LRRK2 (CARNA BIOSCIENCES) was added to a black U-bottom 96-well microtiter plate containing 6 μl of the serially diluted compound, followed by incubation at room temperature for 30 minutes. For the kinase reaction, ATP and a substrate solution specific urea-polypeptide (ULIGHT™-poly TK, PerkinElimer) were added. The reaction was carried out at room temperature for 1 hour, and it was detected with an detection solution (brand name: LANCE™) containing EDTA. A LANCE detection solution containing europium-labeled antibody ([…] PT66) was added, followed by incubation at room temperature for 50 minutes, to terminate the kinase experiment. The phosphorylated substrate was detected by 665 nm emission measurement. IC50 values were calculated by a non-linear regression analysis using a Prism program (PRISM™ software) with reference to the absence of a kinase inhibitor.
As a comparative assay, a compound LRR2-IN-1, that known to be a reference compound for LRRK2 inhibitor, have also tested an inhibitory activity.

[1] = Table 1, class symbols, read-out: LRRK2 inhibition rate (IC50)
[2] = purified LRRK2, Table 6, read-out: IC50

LRRK2 (leucine-rich repeat kinase 2), sequence (Q5S007 whole entry): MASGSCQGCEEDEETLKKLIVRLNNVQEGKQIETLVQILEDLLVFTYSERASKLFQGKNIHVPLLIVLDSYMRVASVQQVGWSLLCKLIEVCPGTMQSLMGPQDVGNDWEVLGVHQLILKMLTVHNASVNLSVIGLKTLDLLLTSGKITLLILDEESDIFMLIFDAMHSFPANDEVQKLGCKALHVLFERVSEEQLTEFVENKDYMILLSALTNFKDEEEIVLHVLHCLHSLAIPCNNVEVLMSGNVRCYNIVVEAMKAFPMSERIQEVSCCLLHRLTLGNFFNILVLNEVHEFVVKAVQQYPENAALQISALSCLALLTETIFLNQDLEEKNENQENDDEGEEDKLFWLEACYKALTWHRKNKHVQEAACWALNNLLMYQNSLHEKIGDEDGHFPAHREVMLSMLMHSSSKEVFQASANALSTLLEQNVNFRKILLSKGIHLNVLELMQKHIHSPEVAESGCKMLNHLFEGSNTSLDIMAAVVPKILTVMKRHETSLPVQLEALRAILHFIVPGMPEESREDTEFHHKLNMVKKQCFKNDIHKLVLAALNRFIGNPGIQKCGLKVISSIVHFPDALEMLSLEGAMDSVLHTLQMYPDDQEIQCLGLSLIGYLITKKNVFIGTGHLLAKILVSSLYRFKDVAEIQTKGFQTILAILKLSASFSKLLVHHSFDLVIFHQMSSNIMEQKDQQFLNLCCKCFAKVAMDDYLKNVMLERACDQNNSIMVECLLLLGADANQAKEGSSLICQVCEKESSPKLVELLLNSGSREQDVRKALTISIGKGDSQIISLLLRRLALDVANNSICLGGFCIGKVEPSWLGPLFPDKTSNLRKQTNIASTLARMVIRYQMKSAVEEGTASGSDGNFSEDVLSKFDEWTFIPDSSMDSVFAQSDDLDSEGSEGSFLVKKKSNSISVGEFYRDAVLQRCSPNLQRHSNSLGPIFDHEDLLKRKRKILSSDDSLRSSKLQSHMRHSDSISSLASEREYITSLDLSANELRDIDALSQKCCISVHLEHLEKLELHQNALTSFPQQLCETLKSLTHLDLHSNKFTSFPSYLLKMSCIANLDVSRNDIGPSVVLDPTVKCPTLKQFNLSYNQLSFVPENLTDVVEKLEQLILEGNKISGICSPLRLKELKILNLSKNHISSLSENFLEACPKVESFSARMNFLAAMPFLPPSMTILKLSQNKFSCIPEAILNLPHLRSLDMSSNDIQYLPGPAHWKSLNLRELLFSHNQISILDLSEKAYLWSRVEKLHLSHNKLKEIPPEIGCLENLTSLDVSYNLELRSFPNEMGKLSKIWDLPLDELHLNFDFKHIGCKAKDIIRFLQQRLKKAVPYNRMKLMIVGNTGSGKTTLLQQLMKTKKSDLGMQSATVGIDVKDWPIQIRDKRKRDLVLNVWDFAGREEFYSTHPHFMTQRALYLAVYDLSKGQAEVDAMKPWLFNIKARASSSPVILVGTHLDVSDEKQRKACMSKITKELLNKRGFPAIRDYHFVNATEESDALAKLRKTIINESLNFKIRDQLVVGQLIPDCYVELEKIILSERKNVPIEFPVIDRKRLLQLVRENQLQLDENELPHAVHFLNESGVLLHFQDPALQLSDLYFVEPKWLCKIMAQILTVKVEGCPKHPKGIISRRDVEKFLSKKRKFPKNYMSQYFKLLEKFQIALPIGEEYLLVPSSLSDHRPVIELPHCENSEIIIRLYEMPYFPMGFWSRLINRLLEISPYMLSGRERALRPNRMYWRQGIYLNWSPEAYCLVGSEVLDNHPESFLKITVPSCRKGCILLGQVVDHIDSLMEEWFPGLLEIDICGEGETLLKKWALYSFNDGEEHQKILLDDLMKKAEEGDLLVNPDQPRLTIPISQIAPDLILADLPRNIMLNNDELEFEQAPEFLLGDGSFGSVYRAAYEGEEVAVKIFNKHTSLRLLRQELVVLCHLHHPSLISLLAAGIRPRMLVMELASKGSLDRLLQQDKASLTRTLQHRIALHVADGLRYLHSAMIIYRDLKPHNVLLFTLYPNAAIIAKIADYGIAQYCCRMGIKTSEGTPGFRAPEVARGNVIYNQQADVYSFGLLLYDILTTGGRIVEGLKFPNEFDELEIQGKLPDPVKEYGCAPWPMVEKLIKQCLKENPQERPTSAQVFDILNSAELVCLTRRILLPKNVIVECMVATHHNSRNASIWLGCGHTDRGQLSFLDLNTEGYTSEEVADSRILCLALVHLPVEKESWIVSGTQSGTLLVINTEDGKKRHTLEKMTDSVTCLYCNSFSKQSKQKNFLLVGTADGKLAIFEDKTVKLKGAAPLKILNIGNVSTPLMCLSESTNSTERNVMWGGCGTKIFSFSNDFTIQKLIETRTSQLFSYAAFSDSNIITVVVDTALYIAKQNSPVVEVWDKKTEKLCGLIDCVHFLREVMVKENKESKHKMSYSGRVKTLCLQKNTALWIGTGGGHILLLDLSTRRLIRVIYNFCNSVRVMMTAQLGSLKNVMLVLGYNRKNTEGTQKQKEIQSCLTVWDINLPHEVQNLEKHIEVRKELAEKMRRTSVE

| IC50 [1] [nM] | IC50 [2] [nM] | SMILES |
| --- | --- | --- |
| < 10 | 7.22 | CCn1nc(Cl)c2cnc(Nc3cn(C4CCN(C(=O)C5CC5)CC4)nc3Cl)nc21 [Compound 57, (4-(3-chloro-4-(3-chloro-1-ethyl-1H-pyrazolo[3,4-d]pyrimidin-6-ylamino)-1H-pyrazol-1-yl)piperidin-1-yl)(cyclopropyl)methanone] |
| 10 to 100 | – | CCn1cc(Cl)c2cnc(Nc3cn([C@@H]4CCN(S(C)(=O)=O)C4)nc3Cl)nc21 [Compound 36, (R)-5-chloro-N-(3-chloro-1-(1-(methylsulfonyl)pyrrolidin-3-yl)-1H-pyrazol-4-yl)-7-ethyl-7H-pyrrolo[2,3-d]pyrimidin-2-amine] |
| 10 to 100 | – | CCn1cc(Cl)c2cnc(Nc3cn(C(C)C)nc3Cl)nc21 [Compound 8, 5-chloro-N-(3-chloro-1-isopropyl-1H-pyrazol-4-yl)-7-ethyl-7H-pyrrolo[2,3-d]pyrimidin-2-amine] |
| 10 to 100 | – | CCn1nc(Cl)c2cnc(Nc3cn(-c4ccc(F)cc4)nc3Cl)nc21 [Compound 44, 3-chloro-N-(3-chloro-1-(4-fluorophenyl)-1H-pyrazol-4-yl)-1-ethyl-1H-pyrazolo[3,4-d]pyrimidin-6-amine] |
| 10 to 100 | – | COc1nn(C(C)C)cc1Nc1ncc2c(Cl)cn(C)c2n1 [Compound 2, 5-chloro-N-(1-isopropyl-3-methoxy-1H-pyrazol-4-yl)-7-methyl-7H-pyrrolo[2,3-d]pyrimidin-2-amine] |
| 100 to 1000 | – | Cn1ncc(Nc2ncc3c(C(F)(F)F)cn(C)c3n2)c1Cl [Compound 1, N-(5-chloro-1-methyl-1H-pyrazol-4-yl)-7-methyl-5-(trifluoromethyl)-7H-pyrrolo[2,3-d]pyrimidin-2-amine] |
| < 10 | – | CCn1cc(Cl)c2cnc(Nc3cn(C4CCCN(S(C)(=O)=O)CC4)nc3Cl)nc21 (centres unmarked) [Compound 42, 5-chloro-N-(3-chloro-1-(1-(methylsulfonyl)azepan-4-yl)-1H-pyrazol-4-yl)-7-ethyl-7H-pyrrolo[2,3-d]pyrimidin-2-amine] |
| 10 to 100 | – | CCn1cc(Cl)c2cnc(Nc3cn([C@H]4CCN(S(C)(=O)=O)C4)nc3Cl)nc21 [Compound 37, (S)-5-chloro-N-(3-chloro-1-(1-(methylsulfonyl)pyrrolidin-3-yl)-1H-pyrazol-4-yl)-7-ethyl-7H-pyrrolo[2,3-d]pyrimidin-2-amine] |
| 10 to 100 | – | CCN1CCC(n2cc(Nc3ncc4c(Cl)cn(CC)c4n3)c(Cl)n2)CC1 [Compound 20, 5-chloro-N-(3-chloro-1-(1-ethylpiperidin-4-yl)-1H-pyrazol-4-yl)-7-ethyl-7H-pyrrolo[2,3-d]pyrimidin-2-amine] |
| 10 to 100 | – | CCn1cc(Cl)c2cnc(Nc3cnn(C)c3Cl)nc21 [Compound 6, 5-chloro-N-(5-chloro-1-methyl-1H-pyrazol-4-yl)-7-ethyl-7H-pyrrolo[2,3-d]pyrimidin-2-amine] |
| 100 to 1000 | – | CCn1cc(Cl)c2cnc(Nc3c(C)nn(C4CCN(S(C)(=O)=O)CC4)c3C)nc21 [Compound 34, 5-chloro-N-(3,5-dimethyl-1-(1-(methylsulfonyl)piperidin-4-yl)-1H-pyrazol-4-yl)-7-ethyl-7H-pyrrolo[2,3-d]pyrimidin-2-amine] |
| < 10 | 6.5 | CCn1cc(Cl)c2cnc(Nc3cnn(C4CCN(C5COC5)CC4)c3Cl)nc21 [Compound 28, 5-chloro-N-(5-chloro-1-(1-(oxetan-3-yl)piperidin-4-yl)-1H-pyrazol-4-yl)-7-ethyl-7H-pyrrolo[2,3-d]pyrimidin-2-amine] |
| < 10 | – | CCn1nc(Cl)c2cnc(Nc3cn(C4CCN(C(=O)N5CCOCC5)CC4)nc3Cl)nc21 [Compound 54, (4-(3-chloro-4-(3-chloro-1-ethyl-1H-pyrazolo[3,4-d]pyrimidin-6-ylamino)-1H-pyrazol-1-yl)piperidin-1-yl)(morpholino)methanone] |
| < 10 | 4.66 | CCn1cc(Cl)c2cnc(Nc3cn(C4CCN(C(=O)N5CCOCC5)CC4)nc3Cl)nc21 [Compound 31, (4-(3-chloro-4-(5-chloro-7-ethyl-7H-pyrrolo[2,3-d]pyrimidin-2-ylamino)-1H-pyrazol-1-yl)piperidin-1-yl)(morpholino)methanone] |
| < 10 | 4.75 | CCn1nc(Cl)c2cnc(Nc3cn(C4CCCN(S(C)(=O)=O)CC4)nc3Cl)nc21 (centres unmarked) [Compound 51, 3-chloro-N-(3-chloro-1-(1-(methylsulfonyl)azepan-4-yl)-1H-pyrazol-4-yl)-1-ethyl-1H-pyrazolo[3,4-d]pyrimidin-6-amine] |
| 10 to 100 | – | CCn1cc(Cl)c2cnc(Nc3cn(CCOC)nc3Cl)nc21 [Compound 12, 5-chloro-N-(3-chloro-1-(2-methoxyethyl)-1H-pyrazol-4-yl)-7-ethyl-7H-pyrrolo[2,3-d]pyrimidin-2-amine] |
| 10 to 100 | – | FC(F)(F)Cn1nc(Cl)c2cnc(Nc3cnn(C4CCN(C5COC5)CC4)c3Cl)nc21 [Compound 50, 3-chloro-N-(5-chloro-1-(1-(oxetan-3-yl)piperidin-4-yl)-1H-pyrazol-4-yl)-1-(2,2,2-trifluoroethyl)-1H-pyrazolo[3,4-d]pyrimidin-6-amine] |
| 100 to 1000 | – | CCn1cc(Cl)c2cnc(Nc3cnn(-c4ccc(Cl)cc4)c3Cl)nc21 [Compound 22, 5-chloro-N-(5-chloro-1-(4-chlorophenyl)-1H-pyrazol-4-yl)-7-ethyl-7H-pyrrolo[2,3-d]pyrimidin-2-amine] |
| 10 to 100 | – | CCn1cc(Cl)c2cnc(Nc3cn([C@@H]4CCN(C(=O)C5CCCC5)C4)nc3Cl)nc21 [Compound 38, (R)-(3-(3-chloro-4-(5-chloro-7-ethyl-7H-pyrrolo[2,3-d]pyrimidin-2-ylamino)-1H-pyrazol-1-yl)pyrrolidin-1-yl)(cyclopentyl)methanone] |
| 10 to 100 | – | CC(=O)N1CCC(n2ncc(Nc3ncc4c(Cl)cn(C)c4n3)c2Cl)CC1 [Compound 23, 1-(4-(5-chloro-4-(5-chloro-7-methyl-7H-pyrrolo[2,3-d]pyrimidin-2-ylamino)-1H-pyrazol-1-yl)piperidin-1-yl)ethanone] |
| 10 to 100 | – | CCn1cc(Cl)c2cnc(Nc3cn(C4CC(C)OC(C)C4)nc3Cl)nc21 (centres unmarked) [Compound 19, 5-chloro-N-(3-chloro-1-(2,6-dimethyltetrahydro-2H-pyran-4-yl)-1H-pyrazol-4-yl)-7-ethyl-7H-pyrrolo[2,3-d]pyrimidin-2-amine] |
| 10 to 100 | – | CCn1cc(Cl)c2cnc(Nc3cn(C4CCN(C)CC4)nc3Cl)nc21 [Compound 17, 5-chloro-N-(3-chloro-1-(1-methylpiperidin-4-yl)-1H-pyrazol-4-yl)-7-ethyl-7H-pyrrolo[2,3-d]pyrimidin-2-amine] |
| 10 to 100 | – | CCn1nc(Cl)c2cnc(Nc3cnn(C4CCN(C5COC5)CC4)c3Cl)nc21 [Compound 45, 3-chloro-N-(5-chloro-1-(1-(oxetan-3-yl)piperidin-4-yl)-1H-pyrazol-4-yl)-1-ethyl-1H-pyrazolo[3,4-d]pyrimidin-6-amine] |
| – | 8.2 | COc1cc(C(=O)N2CCC(N3CCN(C)CC3)CC2)ccc1Nc1ncc2c(n1)N(C)c1ccccc1C(=O)N2C [LRRK2-IN-1, reference compound] |
| 10 to 100 | – | CCn1cc(Cl)c2cnc(Nc3cn(C4CN(S(C)(=O)=O)C4)nc3Cl)nc21 [Compound 40, 5-chloro-N-(3-chloro-1-(1-(methylsulfonyl)azetidin-3-yl)-1H-pyrazol-4-yl)-7-ethyl-7H-pyrrolo[2,3-d]pyrimidin-2-amine] |
